Data reported in patent US4699903A, “Therapeutic use of tin diiododeuteroporphyrin” (The Rockefeller University, priority 1987, dated 1987).
Where “and” joins values, the source holds several entries; their conditions need not be identical. Equal entries are not always repeated. Where two headings read alike, the source gives them in different places.

Legend:
[1] = Singlet and triplet lifetimes; assay type: physicochemical
Experimental: (3) Singlet and triplet lifetimes: The singlet lifetime of SnI2 DP was determined to be 23 psec (this is at the lower levels of instrument detection). The singlet lifetimes of SnPP and SnMP are 500-600 p sec. The triplet lifetime of SnI2 DP was determined to be 0.2 millisec. The triplet lifetimes of SnPP and SnMP are 0.5 and 2.5 milliseconds respectively.

[2] = target: T1, heme oxygenase (Rattus norvegicus, UniProt P06762); experiment: Inhibition of heme oxygenase conversion of heme to bilirubin, rat spleen microsomes; assay type: biochemical; set-up: using rat spleen microsomes as the source of heme oxygenase; from tissue; host or cells: rat spleen microsomes; settings: for inhibition constant compared with that of SnI2 DP: heme oxygenase; for Ki: rat spleen microsomes
T1 sequence (P06762 1-289): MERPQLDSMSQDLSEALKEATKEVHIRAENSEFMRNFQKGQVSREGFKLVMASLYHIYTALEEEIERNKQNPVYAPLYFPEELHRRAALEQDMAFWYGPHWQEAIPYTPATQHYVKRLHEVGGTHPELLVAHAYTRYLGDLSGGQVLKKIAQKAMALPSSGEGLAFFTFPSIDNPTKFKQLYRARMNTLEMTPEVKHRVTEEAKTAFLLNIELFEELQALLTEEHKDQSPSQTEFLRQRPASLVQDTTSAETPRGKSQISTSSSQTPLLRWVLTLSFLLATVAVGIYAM
Experimental: In an initial study using rat spleen microsomes as the source of heme oxygenase the ability of SnI2 DP to inhibit the activity of heme oxygenase to convert heme to bilirubin was determined.
Km=rate constant for heme oxygenase
KmAPP =rate constant for heme oxygenase in the presence of SnI2 DP

[3] = system: heme oxygenase; experiment: Tissue heme oxygenase activity in newborn rats after SnI2 DP; assay type: in vivo, rat
Experimental: (§1) The in vivo ability of SnI2 DP to reduce serum bilirubin was established by studies in neonatal rats. The studies were conducted with four separate litters each containing ten neonates.
(§2) To prepare the solution for parenteral administration, SnI2 DP was taken up in a small volume of 0.2N sodium hydroxide, adjusted to pH 7.4 with 1N hydrochloric acid and made up to final volume with 0.9% sodium chloride. The solution as prepared and used contained a final SnI2 DP concentration of 10 μmol/kg body weight in each 0.1 ml injection volume. Control neonates received 0.1 ml of 0.9% sodium chloride at birth. One group of animals was sacrificed at 24 hours which is normally the peak of bilirubin for neonate rates. The total bilirubin in serum was estimated by the method of Roth, Clin. Chem. Acta, 17 487-492, 1967.
(§3) Heme oxygenase was determined as described by Drummond and Kappas Proc. Natl. Acad. Sci. USA 78: 6466(1981).

[4] = system: heme; experiment: Heme excretion in bile after simultaneous i.v. heme and SnI2 DP, bile duct cannulated adult male rats; assay type: in vivo, rat; settings: heme 6.1 μmol/kg b.w. i.v. simultaneously
Experimental: (§4) Simultaneous intraveous (IV) administration of heme (6.1 μmol/kg b.w.) and SnI2 DP was examined in four pairs of bile duct cannulated adult male rats. The effect of simultaneous administration of heme and SnI2 DP on heme levels in bile and tissue heme oxygenase activity are shown in Tables V and VI respectively.
(§5) Each group was administered heme (6.1 μmol/kg b.w.) simultaneously with either SnI2 DP or saline.

[5] = system: biliary bilirubin; experiment: Drop in biliary bilirubin production in bile duct cannulated adult rats; assay type: in vivo, rat
Experimental: (§6) In the next in vivo test designed to measure the decrease in bilirubin production, SnI2 DP was administered intravenously to five adult rats, 12-15 weeks old at a dose of 10 μmol/kg body weight. Five control rats were administered saline. The bile duct was cannulated and the bile fluid analyzed for bilirubin content.

[6] = Fluorescence characteristics in pyridine; assay type: physicochemical
Experimental: (2) Fluorescence characteristics: A 1 μM solution of SnI2 DP in pyridine was excited at 400 nm and 2 emission peaks were detected at 578 nm and 635 nm. The measurable fluorescence represents less than 5% of that found for SnPP and SnMP.

[7] = system: serum bilirubin; experiment: Serum bilirubin levels in newborn rats; assay type: in vivo, rat
Experimental: as §1, §2

[8] = system: serum bilirubin; experiment: Serum bilirubin in ALA-treated hyperbilirubinemia, 7-day old suckling rats; assay type: in vivo, rat; settings: ALA 50 μmmol/100 g at 0, 4 and 8 hours, sacrificed 16 hours after last ALA
Experimental: (§7) The next study established the ability of SnI2 DP to inhibit the ability of γ-aminolevulinic acid (ALA) to produce jaundice. This study of the efficacy of SnI2 DP to control hyperbilirubinemia thereby preventing the jaundice which develops in rats treated 7 days after birth with ALA is described by Drummond and Kappas, J. Clin. Invest. 74, 142-149 (1984). In the test, ALA (50 μmmol/100 g body weight) is administered to suckling 7 day old rats at 0, 4 and 8 hours, the animals sacrificed 16 hours after the last administration of ALA, and the serum biliribin measured.

[9] = system: heme oxygenase; experiment: Tissue heme oxygenase activity after simultaneous administration of heme; assay type: in vivo, rat; settings: heme 6.1 μmol/kg b.w. simultaneously, n = 4
Experimental: as §4, §5

[10] = target: T1, heme oxygenase; experiment: Tissue heme oxygenase activity in bile duct cannulated adult rats; assay type: in vivo; set-up: from tissue; settings: i.v. 10 μmol/kg b.w., n=5
Experimental: as §6
(§8) In addition, the activity of hepatic, renal and splenic heme oxygenase was decreased in bile duct cannulated animals administered SnI2 DP.
(§9) SnI2 DP administered i.v. at a dose of 10 μmol/kg b.w.
(§10) When compared to saline treated controls, n=5.

[11] = system: heme oxygenase; experiment: as above; assay type: in vivo, rat; settings: i.v. 10 μmol/kg b.w., n=5
Experimental: as §6, §8, §9, §10

[12] = system: heme oxygenase; experiment: Hepatic heme oxygenase activity in ALA-treated 7-day old suckling rats; assay type: in vivo, rat; settings: ALA 50 μmmol/100 g at 0, 4 and 8 hours, sacrificed 16 hours after last ALA
Experimental: as §7, §3

[13] = target: T1, heme oxygenase; experiment: Tissue heme oxygenase activity after simultaneous administration of heme; assay type: in vivo; set-up: from tissue; settings: heme 6.1 μmol/kg b.w. simultaneously, n = 4
Experimental: as §4, §5

tin mesoporphyrin [SnMP]
singlet lifetime [1]: 500-600 psec | triplet lifetime [1]: 2.5 millisec | inhibition constant compared with that of SnI2 DP [2]: approximately the same

tin diiododeuteroporphyrin [SnI2 DP]
kidney heme oxygenase activity ([3]; neonates, repeated test, 48 hours after birth): 0.88 nmol/mg p h | Heme Oxygenase Kidney ([3]; newborn rats, 10 μmol/kg at birth, 24 hours, kidney bulked): 1.13 nmol/mg p h | Heme Oxygenase Spleen ([3]; newborn rats, 10 μmol/kg at birth, 24 hours, spleen bulked): 3.74 nmol/mg p h | Heme Oxygenase Liver ([3]; newborn rats, 10 μmol/kg at birth, sacrificed at 24 hours): 8.07 ± 0.06 nmol/mg p h | Heme excreted in bile (% of administered dose), Average ([4]; average of 4 experiments): 44.9 ± 4.79 % of administered dose | Heme excreted in bile (% of administered dose) ([4]; single experiments 1-4): 51.8 % of administered dose and 48.8 % of administered dose and 48.2 % of administered dose and 30.7 % of administered dose | Drop in biliary bilirubin production, % decrease ([5]; adult rats, 10 μmol/kg i.v., bile duct cannulated, single experiments 1-5): 60% and 35% and 47% and 44% and 48% | average difference between treated and control decline in biliary bilirubin ([5]; adult rats, 10 μmol/kg i.v., p<0.01): 21% | ability to lower heme oxygenase activity, serum and bile bilirubin levels, compared with SnMP ([5]; rats): not as effective as SnMP | fluorescence quenched by comparison with SnPP [6]: 95% | measurable fluorescence as % of that found for SnPP and SnMP ([6]; 1 μM solution in pyridine, excited at 400 nm): less than 5% | Serum Bilirubin ([7]; newborn rats, 10 μmol/kg at birth, 24 hours): 0.34 ± 0.02 mg/dL | activity in preventing serum bilirubin increase, as % of that of SnMP ([7]; rat neonates): about 10% | activity in preventing serum bilirubin increase, compared with SnPP ([7]; rat neonates): roughly the same | Serum Bilirubin [8]: 0.54 ± 0.02 mg/dL | Heme Oxygenase Kidney [9]: 1.04 ± 0.22 nmol/mg p h | Heme Oxygenase Liver [9]: 5.03 ± 0.72 nmol/mg p h | singlet lifetime [1]: 23 psec | triplet lifetime [1]: 0.2 millisec | photosensitizing potential compared with SnPP and SnMP ([1]; inferred from fluorescence and triplet lifetime): less photosensitizing potential | Heme Oxygenase Spleen [10]: 5.37 ± 1.09 nmol/mg p h | Heme Oxygenase Kidney [11]: 0.45 ± 0.03 nmol/mg p h | Heme Oxygenase Liver [11]: 2.06 ± 0.75 nmol/mg p h | Heme Oxygenase Liver [12]: 8.29 ± 0.48 nmol/mg p h | Heme Oxygenase Spleen [13]: 8.15 ± 0.52 nmol/mg p h | Ki ([2]; Lineweaver Burke plots, average of four determinations, read-out: inhibition constant Ki): 69 ± 7 nM | Ki ([2]; four separate determinations, read-out: Ki, separate determinations): 57 nM and 88 nM and 62 nM and 70 nM

NCC(=O)CCC(=O)O [ALA, γ-aminolevulinic acid, reference compound]
Serum Bilirubin [8]: 0.99 ± 0.06 mg/dL | Heme Oxygenase Liver [12]: 11.29 ± 0.33 nmol/mg p h

C=Cc1c2[n-]c(c1C)/C=c1\[n-]/c(c(C)c1C=C)=C\c1[n-]c(c(CCC(=O)O)c1C)C=c1[n-]/c(c(C)c1CCC(=O)O)=C\2.[Sn+4] [SnPP, tin protoporphyrin IX]
singlet lifetime [1]: 500-600 psec | triplet lifetime [1]: 0.5 millisec | inhibition constant compared with that of SnI2 DP [2]: approximately the same
